Reference: patent publication US20070203242A1, “Method for treating gastric reflux” (priority 2006, published 2007)

Assays:
[1] = test system: aspirin induced gastric lesions; conditions: dose 62.5 mg/kg; cited from earlier work
[2] = test system: indomethacin induced gastric lesions; conditions: dose 15.6 mg/kg; cited from earlier work
[3] = test system: small bowel ulcers; conditions: rats; yeast RNA together with L-arginine; cited from earlier work
[4] = test system: patients with gastric reflux / heartburn; assay: Patient reports of relief of gastric reflux / heartburn after oral L-arginine compositions; type: in vivo, human; conditions: for relief of gastric reflux due to stress: one patient
Text: A patient having ulcerations in the upper small intestine who routinely took omeprazole or lansoprazole complained of heartburn on laying down.

SMILES: NC(=O)CC[C@H](N)C(=O)O [Glutamine, L-glutamine]
- prevention of aspirin induced gastric lesions [1]: completely ineffective
- prevention of indomethacin induced gastric lesions [2]: ineffective

SMILES: N=C(N)NCCC[C@H](N)C(=O)O [L-arginine]
- decrease in ulcer number [3]: 34%
- L-arginine required for complete control of the gastric reflux ([4]; daily, severely afflicted patient): 1 to 4 g
- time to complete cessation of all symptoms ([4]; one patient with reflux due to stress, L-arginine 1 gram dose): complete cessation of all symptoms within one minute
- relief of gastric reflux due to stress ([4]; L-arginine 1 gram dose): immediate relief

SMILES: O=C([O-])[O-].[Ca+2] [calcium carbonate antacids, calcium carbonate, reference compound]
- relief of gastric reflux due to stress ([4]; L-arginine 1 gram dose): no relief
